In patent US6506937B2, “Substituted benzenesulfonylureas and -thioureas-processes for their preparation and their use as pharmaceuticals” (priority 1993, dated 2003):

Tests used:
[1] = system: papillary muscle of the guineapig; test: Action potential duration on the papillary muscle of the guineapig; format: cell-based; conditions: test substance 2.2×10^−5 mol per liter, 30 minutes after the addition, repolarization degree of 95%; for APD95-HOE 234: action potential shortened by 1 μM potassium channel opener Hoe 234 (rilmakalim); for APD95-DEO: action potential shortened by 2-deoxyglucose (DEO)
Excerpt: (1) Action potential duration on the papillary muscle of the guineapig:
ATP deficiency states such as are observed during ischemia in the cardiac muscle cell lead to a shortening of the duration of action potential. They are one of the causes of so-called reentry arrhythmias, which can cause sudden cardiac death. Opening of ATP-sensitive K channels by the reduction in ATP is a cause of this.
A standard microelectrode technique is used for measurement of the action potential. For this, guineapigs of both sexes are sacrificed by a blow to the head, the hearts are removed and the papillary muscles are separated out and suspended in an organ bath. The organ bath is flushed with Ringer solution (0.9% NaCl, 0.048% KCl, 0.024% CaCl2, 0.02% NaHCO3 and 0.1% glucose) and gassed with a mixture of 95% oxygen and 5% carbon dioxide at a temperature of 36° C. The muscle is stimulated via an electrode with rectangular pulses of 1 V and 1 ms duration and a frequency of 2 Hz. The action potential is conducted and recorded through a glass microelectrode, which is punctured intracellularly and filled with 3 mol KCl solution. The substances to be tested were added to the Ringer solution in a concentration of 2.2×10^−5 mol per liter. The action potential is shown in amplified form on an oscilloscope using a Hugo Sachs amplifier. The duration of the action potential is determined at a repolarization degree of 95% (APD95). Shortenings in action potential are caused either by addition of a 1 μM strength solution of the potassium channel opener Hoe 234 (rilmakalim) [W. Linz, E. Klaus, U. Albus, R. H. A. Becker, D. Mania, H. C. Englert, B. A. Schölkens Arzneimittelforechung/Drug Research, Volume 42 (II), 1992, pages 1180-1185] or by addition of 2-deoxyglucose (DEO). ATP deficiency states are caused in experimental physiology by 2-deoxyglucose by blockade of glucose meta-bolism. The action potential-shortening effect of these substances was prevented or reduced by the simultaneous dose of the test substances. The test substances were added to the bath solution as stock solutions in propanediol. The values stated relate to measurements 30 minutes after the addition. The APD95 in the presence of DEO or HOE 234 and in the absence of the test substance serves an a control.

[2] = system: RINm5F cells; test: Membrane potential on isolated β cells (RINm5F cells, whole cell patch clamp); format: cell-based; conditions: compound 10^−5 mol per liter, diazoxide (100 μmol) in bath, 34±1° C.
Excerpt: (2) Membrane potential on isolated β cells:
The action mechanism of hypoglycemic sulfonylureas is clarified in rough outlines. The β cells of the pancreas are the target organ, where increased secretion of the hypoglycemic hormone insulin occurs. The release of insulin is controlled by the cell membrane potential. Glibenclamide causes depolarization of the cell membrane, which promotes insulin release via an increased in-flow of calcium ions. The extent of this depolarization of the call membrane ΔU was determined on RINm5F cells, a pancreas tumor cell line, for some of the compounds according to the invention. The action strength of a compound in this model predicts the extent of the hypoglycemic potential of this compound.
RINm5F cells were cultured at 37° C. in RPMI 1640 culture medium (flow), to which […] of glucose, 10% (volume/volume) of fetal calf serum, 2 mmol of glutamine and 50 μg/ml of gentamycin were added. For the studies, the cells were isolated by incubation (about 3 minutes) in a Ca^2+-free medium containing 0.25% of trypsin and stored on ice.
Isolated RINm5F cells were introduced into a Plexi-glas chamber on an inverse microscope fitted with a differential interference contrast lens. A fire-polished micropipette with an opening diameter of about 1 μm was placed on the cell with the aid of a micromanipulator under optical control (400-fold magnification). By applying a slight reduced pressure in the patch pipette, a high electrical seal was first produced between the glass and cell membrane, and was then broken open by increasing the reduced pressure of the membrane spot under the measurement pipette. The cell potential was recorded in this whole cell configuration with the aid of a patch clamp amplifier (L/M EPC 7) and was measured by applying a potential ramp to the whole cell current.
Solutions: The patch pipette was filled with KCl solution (in mmol): 140 KCl, 10 NaCl, 1.1 MgCl2, 0.5 EGTA, 1 Mg-ATP, 10 HEPES, pH=7.2, and the bath contained NaCl solution (in mmol): 140 NaCl, 4.7 KCl, 1.1 MgCl2, 2 CaCl2, 10 HEPES, pH=7.4. […]

SMILES | melting point | APD95-HOE 234 [1] | APD95-DEO [1] | ΔU (depolarization of the cell membrane) [2]
CNC(=O)NS(=O)(=O)c1cc(CCNC(=O)c2cc(F)ccc2OC)ccc1OC | 199 to 200 °C |  |  | 
CNC(=S)NS(=O)(=O)c1cc(CCNC(=O)c2cc(Cl)ccc2OC)ccc1C | 183 °C |  |  | 
CCc1ccc(CCNC(=O)c2cc(Cl)ccc2OC)cc1S(=O)(=O)NC(=O)NC | 207 °C |  |  | 
CCc1ccc(CCNC(=O)c2cc(Cl)ccc2OC)cc1S(=O)(=O)NC(=S)NC | 155 °C |  |  | 
CNC(=O)NS(=O)(=O)c1cc(CCCNC(=O)c2cc(Cl)ccc2OC)ccc1OC | 285 °C |  |  | 
CNC(=O)NS(=O)(=O)c1cc(CCNC(=O)c2cc(Cl)ccc2OC)ccc1C [Example 4, 2-Methoxy-5-chloro-N-{5-[1-sulfonylamino-N-(methylaminocarbonyl)-2-methylphenyl]-ethyl}-benzamide] |  | 123 ± 15 (172 ± 18) ms | 110 ± 23 (180 ± 5) ms | 19 (−76) n = 3 mv
CNC(=S)NS(=O)(=O)c1cc(CCNC(=O)c2cc(F)ccc2OC)ccc1OC | 182 to 185 °C |  |  | 
CNC(=S)NS(=O)(=O)c1cc(CCNC(=O)c2cc(Cl)ccc2OC)ccc1OC [Example 10, 2-Methoxy-5-chloro-N-{5-[1-sulfonylamino-N-(methylaminothiocarbonyl)-2-methoxyphenyl]-ethyl}-benzamide] |  | 137 ± 20 (150 ± 23) ms | 125 (175) ms | 11 (−79) n = 3 mv
CNC(=O)NS(=O)(=O)c1cc(CCNC(=O)c2cc(Cl)ccc2OC)ccc1OC [Example 1, 2-Methoxy-5-chloro-N-{5-[1-sulfonylamino-N-(methylaminocarbonyl)-2-methoxyphenyl]-ethyl}-benzamide] |  | 138 ± 3 (160 ± 20) ms | 107 ± 14 (155 ± 9) ms | 13 (−76) n = 6 mv
CCOc1ccc(CCNC(=O)c2cc(Cl)ccc2OC)cc1S(=O)(=O)NC(=O)NC | 190 to 195 °C |  |  | 
